Reference: patent US7115544B2, “Plant growth regulators for cotton hervest” (Sumitomo Chemical Company, Limited, priority 2001, dated 2006)

Columns and labels:
cotton plants = assay: Field test on cotton plants at boll opening: defoliation ratio and boll opening after foliar spray; format: in vivo; conditions: for Defoliation ratio (%) Rep. 1 / Defoliation ratio (%) Rep. 2 / Defoliation ratio (%) Rep. 3: 20 g/ha, emulsifiable concentrate diluted with water containing 1% (v/v) COC, day 14 after the treatment; for Defoliation ratio (%) Rep. 1: replication 1 about 60% of open bolls; for Defoliation ratio (%) Rep. 2: replication 2 about 60 to 70% of open bolls; for Defoliation ratio (%) Rep. 3: replication 3 80 to 85% of open bolls; for cotton boll opening: field test, sprayed at the time of cotton boll opening
Experimental: The test results were evaluated according to the following criteria: Defoliation ratio (%)=(the number of dropped leaves/the total number of leaves examined)×100
Cotton seeds were planted and grown in the field. At the time of cotton boll opening, 2.5 parts of each of compounds […], 10 parts of Sorpol 3890 (Toho Chemical Industry Co., Ltd.), and 87.5 parts of SOLVESSO 200 (Exxon Mobile Chemical Company) were well mixed to give an emulsifiable concentrate for each compound, which was then diluted at a prescribed dose with water containing 1% (v/v) crop oil concentrate (COC), and the dilution was uniformly sprayed to the plants. Treatments were carried out with three replications. Replication 1 had about 60% of open bolls; replication 2 had about 60 to 70% of open bolls; replication 3 had 80 to 85% of open boils. The treated fields are each 4 m×6.4 m in area, and the cotton plants on day 14 after the treatment were examined for the defoliation ratio.

Row | SMILES | Defoliation ratio (%) Rep. 1 (cotton plants) [%] | Defoliation ratio (%) Rep. 2 (cotton plants) [%] | Defoliation ratio (%) Rep. 3 (cotton plants) [%] | cotton boll opening (cotton plants) | melting point [°C]
1 | COC(=O)COc1ccccc1Oc1cc(-n2c(=O)cc(C(F)(F)F)n(C)c2=O)c(F)cc1Cl [Compound a-5, methyl [2-{2-chloro-4-fluoro-5-[3-methyl-2,6-dioxo-4-(trifluoromethyl)-1,2,3,6-tetrahydropyrimidin-1-yl]phenoxy}phenoxy]acetate] | 85 | 90 | 82 | stimulated cotton boll opening | –
2 | COC(=O)COc1ncccc1Oc1cc(-n2c(=O)cc(C(F)(F)F)n(C)c2=O)c(F)cc1Cl [Compound a-6, methyl [3-{2-chloro-4-fluoro-5-[3-methyl-2,6-dioxo-4-(trifluoromethyl)-1,2,3,6-tetrahydropyrimidin-1-yl]phenoxy}-2-pyridyloxy]acetate] | 80 | 75 | 85 | stimulated cotton boll opening | –
3 | Cn1c(C(F)(F)F)cc(=O)n(-c2cc(Oc3ccccc3OCC(=O)OC(C)(C)C)c(Cl)cc2F)c1=O [Compound a-121, t-butyl [2-{2-chloro-4-fluoro-5-[3-methyl-2,6-dioxo-4-(trifluoromethyl)-1,2,3,6-tetrahydropyrimidin-1-yl]phenoxy}phenoxy]acetate] | – | – | – | – | 55.6
